Article PMC11997307, “Rat Sarcoma (RAS)-Protein-Targeting Synthetic Cell-Penetrating Peptide as an Anticancer Biomaterial” (Biomaterials Research, 2025)

Assays:
integrin alpha 3 = biological target: T1, integrin alpha 3 (Homo sapiens, UniProt P26006); assay: SPR (Biacore) binding of RBP to immobilized integrin alpha 3 (selectivity control); conditions: CM5 chip, integrin alpha 3 immobilized, 11 concentrations of RBP
T1 sequence (P26006 33-1051): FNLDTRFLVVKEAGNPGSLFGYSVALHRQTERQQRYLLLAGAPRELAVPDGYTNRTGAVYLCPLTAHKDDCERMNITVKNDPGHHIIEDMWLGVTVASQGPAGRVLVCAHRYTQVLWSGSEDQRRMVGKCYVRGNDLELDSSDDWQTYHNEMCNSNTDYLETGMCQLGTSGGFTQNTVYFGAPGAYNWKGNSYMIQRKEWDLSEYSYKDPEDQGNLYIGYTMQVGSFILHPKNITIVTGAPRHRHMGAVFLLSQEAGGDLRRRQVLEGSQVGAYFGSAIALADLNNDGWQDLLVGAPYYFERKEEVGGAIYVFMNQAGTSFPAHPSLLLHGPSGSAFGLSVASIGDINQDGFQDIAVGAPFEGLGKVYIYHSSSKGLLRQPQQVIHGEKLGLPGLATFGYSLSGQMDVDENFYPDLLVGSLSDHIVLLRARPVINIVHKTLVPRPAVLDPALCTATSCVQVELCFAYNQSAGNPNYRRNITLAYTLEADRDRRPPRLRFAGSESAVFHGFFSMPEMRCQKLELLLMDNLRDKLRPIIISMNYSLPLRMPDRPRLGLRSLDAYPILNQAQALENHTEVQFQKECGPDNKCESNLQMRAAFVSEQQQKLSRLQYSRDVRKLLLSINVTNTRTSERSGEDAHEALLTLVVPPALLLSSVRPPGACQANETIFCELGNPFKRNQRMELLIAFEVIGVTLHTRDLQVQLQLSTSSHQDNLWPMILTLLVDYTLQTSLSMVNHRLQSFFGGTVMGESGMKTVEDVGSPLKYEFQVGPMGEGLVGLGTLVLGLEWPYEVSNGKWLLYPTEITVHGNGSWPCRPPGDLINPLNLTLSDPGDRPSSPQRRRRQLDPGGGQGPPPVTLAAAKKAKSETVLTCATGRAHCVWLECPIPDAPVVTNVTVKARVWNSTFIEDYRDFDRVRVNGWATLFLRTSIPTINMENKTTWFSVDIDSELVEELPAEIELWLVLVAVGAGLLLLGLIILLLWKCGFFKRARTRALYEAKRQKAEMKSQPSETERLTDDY
Procedure: N-Hydroxysuccinimide (NHS) and EDC were used as cross-linkers. The remaining unreacted active groups on the dextran surface were blocked with ethanolamine. The running buffer consisted of 150 mM NaCl, 5 mM EDTA, and 0.05% Tween 20 in 10 mM Hepes, pH 7.4. A CM5 chip without immobilized protein was used as the blank surface in the Biacore assay (Biacore T100, GE Healthcare Bio-Sciences AB, Uppsala, Sweden). […] The dissociation phase was conducted for 5 min.

MDA-MB-231 cells [1] = assay: Sphere formation assay; type: cell-based, human
Procedure: The sphere formation potential of the cells was evaluated under nonadherent culture conditions. The cells were cultured in ultralow-attachment 6-well plates (Corning Life Sciences, MA, USA) at a density of 2 × 10^3 cells per well, since the low overall viability of […] prevents the use of single-cell culture methods. The cells were grown in DMEM/F12 (Invitrogen, CA, USA) supplemented with B27 serum-free supplement (1:50; Invitrogen, CA, USA), human recombinant epidermal growth factor (EGF), and 50 ng/ml human recombinant basic fibroblast growth factor (PeproTech, NJ, USA) with 100 μM peptides at 37 °C with 5% CO2. Fresh medium was added every 3 to 4 d, and sphere formation was monitored. The experiment was terminated on day 10, and the number of spheres (>50 μm) was quantified.

MDA-MB-231 cells [2] = assay: Scratch wound migration assay; type: cell-based, human; conditions: MDA-MB-231, serum-starved monolayer, 6-72 h
Procedure: To assess MDA-MB-231 cell migration, 2 methods were employed: a Transwell migration assay and a scratch assay. For the Transwell migration assay, 24-well Transwell plates (8-μm pore size; Costar, Corning Incorporated, Corning, NY, USA) were used to evaluate the invasive potential of the cells. […] Following a 6-h incubation period, nonmigratory cells were carefully removed from the upper surface of the membrane using a PBS-soaked cotton swab. The cells that successfully migrated through the membrane were fixed in methanol for 10 min, and Giemsa staining was used to visualize them. Images were captured using an Olympus DP72 camera at ×100 magnification, and the number of migrated cells in the treated samples was compared with that in the control samples. For the scratch assay, MDA-MB-231 cells (1 × 10^6 cells) were cultured in 6-well plates until they reached confluence. The cells were rinsed with PBS and incubated overnight in serum-free medium. A sterile 200-μl plastic pipette tip was used to create a linear scratch in the center of the monolayer. […] Images were taken immediately after scratching and again after 6, 24, 48, and 72 h of incubation using an Olympus CKX41 inverted microscope at ×20 magnification to evaluate the distance the cells migrated from the wound edge.

[3] = system: phospho-c-RAF and phospho-ERK1/2 in MDA-MB-231 cells; assay: Western blot of RAS-MAPK pathway, MDA-MB-231; type: cell-based, human; conditions: MDA-MB-231, 10-250 μM RBP 6 h then 50 ng/ml EGF 10 min
Procedure: Protein expression was confirmed via Western blot analysis. Briefly, 9 × 10^5 cells were cultured in 100-mm-diameter dishes. When they reached 90% confluence, the cells were starved for 18 h in serum-free medium. […] At the end of the culture period, the cells were lysed for 20 min in cold lysis buffer on ice. Protein concentration was measured using bicinchoninic acid protein assays (Thermo Fisher Scientific, MA, USA). Equal aliquots of protein (40 μg) were boiled for 7 min in 5× sample buffer and separated by 10% SDS–PAGE. Proteins were transferred onto nitrocellulose membranes, followed by washing with Tris-buffered saline (TBS) containing 0.1% Tween 20 (TBST). The membranes were then blocked for 60 min at room temperature with 5% skim milk in TBST. Following the washing procedure, the membranes were incubated with primary antibodies (RAS, phospho-ERK1/2, ERK1/2, phospho-RAF proto-oncogene serine/threonine-protein kinase [phospho-c-RAF; S338], c-RAF [Cell Signaling Technology, Beverly, MA, USA], and GAPDH [Santa Cruz Biotechnology, Inc., Santa Cruz, CA, USA]) diluted in TBST containing 5% skim milk at 4 °C for 18 h. […] The membranes were subsequently washed 3 more times, and protein bands were detected using chemiluminescence reagents (West Pico PLUS, Thermo Fisher Scientific, USA).

## C[C@@H](O)[C@H](NC(=O)[C@H](CO)NC(=O)[C@H](CS)NC(=O)[C@H](CCCCN)NC(=O)CN)C(=O)N[C@@H](CCCNC(=N)N)C(=O)NCC(=O)N[C@@H](CCCNC(=N)N)C(=O)N[C@@H](CCCCN)C(=O)N[C@@H](CS)C(=O)N[C@@H](CS)C(=O)N[C@@H](CCCNC(=N)N)C(=O)N[C@@H](CCCNC(=N)N)C(=O)N[C@@H](CCCCN)C(=O)N[C@@H](CCCCN)C(N)=O [RBP]
Integrin alpha 3
  binding to unrelated receptor integrin alpha 3: did not bind
MDA-MB-231 cells [1]; MDA-MB-231, serum-free medium with growth factors, nonadherent conditions, after 3 d (Fig. 2C legend)
  spherical colonies observed in RBP-treated groups: no colonies >30 μm in diameter were observed
MDA-MB-231 cells [1]; MDA-MB-231, ultralow-attachment plates, 100 μM peptide added on the first day, 10 d
  sphere proliferation vs control: significantly suppressed
MDA-MB-231 cells [2]
  tumor cell migration in scratch assay: significantly inhibited
[3]
  activation of RAF (phospho-c-RAF): effectively inhibited
[3]; p-ERK/ERK, n = 3
  phosphorylation of ERK1/2: effectively inhibited
